The source of these data is US20250135012A1, “DENDRIMER CONJUGATES OF SMALL MOLECULE BIOLOGICS FOR INTRACELLULAR DELIVERY” (The Johns Hopkins University, priority 2021, published 2025).

Non-standard residues stand in square brackets, D forms with d. Residues, ends and D or L forms follow the SMILES beside them. Cya = N[C@@H](CS(=O)(=O)O)C(=O)O

Series [1] has as its system VEGF-A. The series is described as follows: VEGF-A expression by VEGF stimulated endothelial cells. It counts as cell-based, human. Particulars: co-incubated with VEGF-A. As for the experimental part: Cells were treated with D-ALG1001 and ALG-1001 for 24 h before activation with VEGF for 5 minutes. […] Cells were lysed with TRIZOL® and processed as previously described for qPCR analysis.
In addition to examining pathway activation, the effects of D-ALG and ALG-1001 were also studied on VEGF-A expression by endothelial cells.

The test system of series [2] is CNV area. In words: Biodistribution after systemic administration, laser CNV model. It counts as in vivo, Brown Norway rats. The settings on record: systemic (intraperitoneal) administration, 150 μg. The method, then: For biodistribution studies, a dose of Cy5-D-ALG1001-Cy3 and ALG-1001-Cy3 at 150 μg/100 μL was administered to each animal intraperitoneally on the day of CNV induction (Day 0). Animals were sacrificed at 1-, 2-, 3-, and 4-day time points and enucleated.
After fixation, the posterior segment of the eye was dissected out and the retina separated from the choroid. Tissues stained with FITC-labeled isolectin (GS IB4) (Life Technologies, Eugene, OR) for blood vessels and monocytes. Eyes were mounted by introducing four radial relaxation cuts. Samples for biodistribution were imaged under a confocal 710 microscope (Carl Zeiss, Oberkochen, Germany). Samples for CNV quantification were imaged with an Axiovert phase contrast microscope. All images were processed with ImageJ.
Fluorescently labeled Cy3-ALG-1001 peptide and dual labeled Cy5-dendrimer-ALG-Cy3 were systemically injected on day 0 (same day as CNV induction) and choroidal tissues were collected at set time points. Confocal microscopy was used to monitor the presence of ALG-1001 peptide (Cy3), dendrimer carrier (Cy5), CNV formation (Isolectin), and macrophages (Iba1). […] In comparison, D-ALG was able to not only reach the CNV area within 24 h after systemic injection but also remain in the target area up to 4 days post administration from the co-localized presence of both Cy5 and Cy3 signals.

As for `C[C@@H](O)[C@H](NC(=O)[C@H](CS(=O)(=O)O)NC(=O)CNC(=O)[C@H](CCCNC(=N)N)NC(=O)CN)C(=O)N1CCC[C@H]1C(=O)O` [ALG-1001] (H-GRG[Cya]TP-OH; N-terminus and C-terminus assumed), the “VEGF production compared to the control” value in series [1] is “did not have statistically significant increases”. In addition, in series [2], the “time remaining in the CNV target area” value is recorded as “up to 2 days”.
